Measured values taken from patent US9840510B1, “Pyrazolo[1,5-a]pyrimidinyl carboxamide compounds and their use in the treatment of medical disorders” (Lysosomal Therapeutics Inc., priority 2016, dated 2017).
≈ marks a conversion by molar mass, not a printed value.

What was measured:
[1] = target: T1, glucocerebrosidase (Gcase) (Homo sapiens, UniProt P04062); assay: Glucocerebrosidase (Gcase) activation assay, 4-methylumbelliferyl-beta-D-glucopyranoside substrate, fluorescence endpoint; format: biochemical; conditions: for Percent Gcase Activation, 0.1 μM Test Compound: test compound at 0.1 μM; for Percent Gcase Activation, 1 μM Test Compound: test compound at 1.0 μM
T1 sequence (P04062 40-536): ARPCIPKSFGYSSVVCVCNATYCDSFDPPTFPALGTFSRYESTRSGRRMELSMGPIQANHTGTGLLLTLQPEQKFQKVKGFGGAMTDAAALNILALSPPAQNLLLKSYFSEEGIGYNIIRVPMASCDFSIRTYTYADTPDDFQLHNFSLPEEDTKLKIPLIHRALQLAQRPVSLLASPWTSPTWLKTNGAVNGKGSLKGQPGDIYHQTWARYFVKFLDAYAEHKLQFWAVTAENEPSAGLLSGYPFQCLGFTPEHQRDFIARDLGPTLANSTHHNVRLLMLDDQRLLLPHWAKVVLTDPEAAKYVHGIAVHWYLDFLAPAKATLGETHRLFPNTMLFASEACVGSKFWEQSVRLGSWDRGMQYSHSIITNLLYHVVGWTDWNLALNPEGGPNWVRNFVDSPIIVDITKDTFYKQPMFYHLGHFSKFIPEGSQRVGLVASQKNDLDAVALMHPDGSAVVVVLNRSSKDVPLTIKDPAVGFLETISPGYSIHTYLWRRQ
Procedure: The ability of exemplary compounds to activate glucocerebrosidase (Gcase) was measured.
A 484 μL aliquot of a 1.0 mg/mL solution of phosphatidylserine (PS) (Sigma P7769) in chloroform was evaporated under a stream of nitrogen for 1 hour. The lipid film was dissolved over 4 minutes of vigorous vortexing in 40 mL of 176 mM K2HPO4/50 mM citric acid (pH 4.7) containing 7.5 μL of triton X-100, resulting in a mixed micellar preparation with a composition of 0.32 mM triton and 0.37 mol % PS. 4-Methylumbelliferyl-beta-D-glucopyranoside (ACROS-337025000) was dissolved in the micellar solution to a final concentration of 2 mM for use as the reaction substrate.
Test compounds were diluted to the desired concentrations with dimethylsulfoxide (DMSO) from 10 mM stocks, and 0.41 μL of the DMSO compound mixture was added to 100 μL of micellar solution containing 10 nM GCase and 100 nM saposin C (Enzo ALX-201-262-C050). Pre-incubation was allowed to occur for 30 minutes at room temperature, after which the reaction was initiated by combining 25 μL of substrate solution with 25 μL of compound/GCase/saposin mixture. The reaction proceeded for 15 minutes at room temperature and was stopped by adding 150 μL of 1M glycine, pH 12.5. The endpoint of the reaction was monitored by measuring fluorescence intensity (excitation: 365 nm; emission: 440 nm) on a SpectraMax i3 instrument (Molecular Devices). Test compounds were screened at 1.0 and 0.1 μM final concentration, and subsequent 8-point dose response curves were obtained using 3-fold dilutions from a maximum final concentration of 5 μM.

[2] = Compound solubility in water; format: physicochemical

SMILES	Percent Gcase Activation, 0.1 μM Test Compound [1]	Percent Gcase Activation, 1 μM Test Compound [1]	solubility [2] [µg/mL]
Cc1cc(-c2cccc(F)n2)nc2c(C(=O)NC(C)C3CC3)cnn12 (stereo not drawn) [III-130]	*** (greater than 20% Gcase activation)	+++ (Gcase activation greater than 60%)	0.2 (≈ 0.589 µM)
COc1cccc(-c2cc(C)n3ncc(C(=O)NC(C4CC4)C(F)(F)F)c3n2)c1 (stereo not drawn) [III-105]	*** (greater than 20% Gcase activation)	+++ (Gcase activation greater than 60%)	0.08 (≈ 0.198 µM)
Cc1cc(-c2cccnc2)nc2c(C(=O)NC(C3CC3)C(F)(F)F)cnn12 (stereo not drawn) [III-35]			6.5 (≈ 17.3 µM)
Cc1cc(-c2cnccc2F)nc2c(C(=O)NC(C3CC3)C(F)(F)F)cnn12 (stereo not drawn) [III-124]			1.9 (≈ 4.83 µM)
Cc1cc(-c2cccc(-c3ncccn3)n2)nc2c(C(=O)NC(C3CC3)C(F)(F)F)cnn12 (stereo not drawn) [III-175]			1 (≈ 2.21 µM)
Cc1cc(-n2ccc(F)n2)nc2c(C(=O)NC(C3CC3)C(F)(F)F)cnn12 (stereo not drawn) [III-172]			0.5 (≈ 1.31 µM)
Cc1cc(-c2nc3ccccc3n2C)nc2c(C(=O)NC(C3CC3)C(F)(F)F)cnn12 (stereo not drawn) [III-312]			0.3 (≈ 0.7 µM)
Cc1cc(-c2ccc3c(c2)ncn3C)nc2c(C(=O)NC(C3CC3)C(F)(F)F)cnn12 (stereo not drawn) [III-303]			3.2 (≈ 7.47 µM)

Continued, values first:

Percent Gcase Activation, 0.1 μM Test Compound [1]	Percent Gcase Activation, 1 μM Test Compound [1]	solubility [2] [µg/mL]	SMILES
		0.7 (≈ 1.71 µM)	Cc1cc(-c2noc(C(C)C)n2)nc2c(C(=O)N[C@@H](C3CC3)C(F)(F)F)cnn12 [III-394]
		2.1 (≈ 5.34 µM)	Cc1cc(-c2cccnc2F)nc2c(C(=O)N[C@H](C3CC3)C(F)(F)F)cnn12 [III-114]
		1.6 (≈ 4.58 µM)	Cc1cc(-c2ccccn2)nc2c(C(=O)NC(C)C(F)(F)F)cnn12 (stereo not drawn) [III-50]
		1.3 (≈ 3.06 µM)	Cc1cc(N2CC(C(C)C)OC2=O)nc2c(C(=O)NC(C3CC3)C(F)(F)F)cnn12 (stereo not drawn) [III-316]
		3.4 (≈ 8.96 µM)	COc1ccc(-c2cc(C)n3ncc(C(=O)N[C@@H](C)C(F)(F)F)c3n2)cn1 [III-273]
		1.6 (≈ 3.71 µM)	CNC(=O)c1cccc(-c2cc(C)n3ncc(C(=O)NC(C4CC4)C(F)(F)F)c3n2)c1 (stereo not drawn) [III-414]
*** (greater than 20% Gcase activation)	+++ (Gcase activation greater than 60%)	0.4 (≈ 0.976 µM)	Cc1cc(-c2ccc(Cl)cn2)nc2c(C(=O)N[C@@H](C3CC3)C(F)(F)F)cnn12 [III-118]
		0.09 (≈ 0.238 µM)	CCc1cc(-c2ccccn2)nc2c(C(=O)NC(C)(C)C(F)(F)F)cnn12 [III-407]
		18.2 (≈ 44.7 µM)	Cc1cc(-c2cccnc2)nc2c(C(=O)N[C@H]3CC[C@H](OC(C)(C)C)CC3)cnn12 [III-38]
		0.5 (≈ 1.2 µM)	Cc1cc(-c2ccc3ocnc3c2)nc2c(C(=O)N[C@H](C3CC3)C(F)(F)F)cnn12 [III-109]
		2.1 (≈ 6.08 µM)	Cc1cc(-c2cccc(C#N)c2)nc2c(C(=O)N[C@@H](C)C3CC3)cnn12 [III-70]
		4.5 (≈ 11.5 µM)	Cc1cc(N2CCC(F)(F)CC2)nc2c(C(=O)NC(C)C(F)(F)F)cnn12 (stereo not drawn) [III-181]
		0.5 (≈ 1.32 µM)	Cc1coc(-c2cc(C)n3ncc(C(=O)N[C@@H](C4CC4)C(F)(F)F)c3n2)n1 [III-256]
